For the experiment, the system named is LG0703-F948-PDC complex spheroid viability. Description: Anticancer human tumor LG0703-F948-PDC patient-derived lung adenocarcinoma cell line growth inhibition. Conditions: for viability, T/C: stronger effect = lower value. The method in brief:
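Multicellular complex spheroids of tumor cells with human endothelial cells (HUVEC) and mesenchymal stem cells; the LSD1 inhibitor iadademstat was combined with standard-of-care or investigational agents. Top concentration at or near clinical Cmax, half-log dilutions; final DMSO ≤0.25%.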

[1] abbreviates: curve of first compound, second compound 0.1 µM.
[2] abbreviates: curve of first compound, second compound 0.316 µM.
Setting [3] is: curve of first compound, second compound 1 µM.
Setting [4] is: curve of first compound, second compound 3.16 µM.
Where [5] appears, read: curve of first compound, second compound 10 µM.
[6] abbreviates: second compound 0.1 µM, first compound 0.00316 µM.
Where [7] appears, read: second compound 0.1 µM, first compound 0.01 µM.
[8] abbreviates: second compound 0.1 µM, first compound 0.0316 µM.
Setting [9] is: second compound 0.1 µM, first compound 0.1 µM.
The mark [10] stands for this setting: second compound 0.316 µM, first compound 0.00316 µM.
Setting [11] is: second compound 0.316 µM, first compound 0.01 µM.
Setting [12] is: second compound 0.316 µM, first compound 0.0316 µM.
[13] abbreviates: second compound 0.316 µM, first compound 0.1 µM.
Where [14] appears, read: second compound 1 µM, first compound 0.00316 µM.
Setting [15] is: second compound 1 µM, first compound 0.01 µM.
[16] abbreviates: second compound 1 µM, first compound 0.0316 µM.
[17] abbreviates: second compound 1 µM, first compound 0.1 µM.
Where [18] appears, read: second compound 3.16 µM, first compound 0.00316 µM.
Where [19] appears, read: second compound 3.16 µM, first compound 0.01 µM.
[20] abbreviates: second compound 3.16 µM, first compound 0.0316 µM.
[21] abbreviates: second compound 3.16 µM, first compound 0.1 µM.
Where [22] appears, read: second compound 10 µM, first compound 0.00316 µM.
The mark [23] stands for this setting: second compound 10 µM, first compound 0.01 µM.
The mark [24] stands for this setting: second compound 10 µM, first compound 0.0316 µM.
[25] abbreviates: second compound 10 µM, first compound 0.1 µM.

Where “and” joins values, the source holds several entries; their conditions need not be identical. Equal values may be shown once.

Consider five compounds from PubChem BioAssay AID1918952 (Molecular Pharmacology Branch, DTP, NCI, 2023).
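Note: spheroids exposed to agents for seven days before readout.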
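Throughout, for viability, T/C: 100% = DMSO vehicle control wells as normalization base.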

Regarding `Nc1ccn(C2OC(CO)C(O)C2(F)F)c(=O)n1` (centres undefined) + NC1CCC(NC2CC2c2ccccc2)CC1, the 50% inhibitory concentration (IC50) turned out to be 3.35 nM under setting [1]; 4.37 nM under setting [2]; 15.2 nM under setting [3]; 24.4 nM under setting [4]; 19.3 nM under setting [5]. Further, the viability, T/C by setting is: (second compound 0.1 µM, first compound 0.000949 µM) 68.9%; (second compound 0.1 µM, first compound 0.003 µM) 50.5%; (second compound 0.1 µM, first compound 0.00949 µM) 41.8%; (second compound 0.1 µM, first compound 0.03 µM) 44%; (second compound 0.1 µM, first compound 0.0949 µM) 39.1%; (second compound 0.1 µM, first compound 0.3 µM) 36.8%. The viability, T/C is 67.5% (second compound 0.316 µM, first compound 0.000949 µM); 52.3% (second compound 0.316 µM, first compound 0.003 µM); 45.3% (second compound 0.316 µM, first compound 0.00949 µM); 41.1% (second compound 0.316 µM, first compound 0.03 µM); 44.2% (second compound 0.316 µM, first compound 0.0949 µM); 38.6% (second compound 0.316 µM, first compound 0.3 µM). For the same compound, the viability, T/C by setting is: (second compound 1 µM, first compound 0.000949 µM) 74.6%; (second compound 1 µM, first compound 0.003 µM) 56.1%; (second compound 1 µM, first compound 0.00949 µM) 55%; (second compound 1 µM, first compound 0.03 µM) 46.4%; (second compound 1 µM, first compound 0.0949 µM) 48.1%; (second compound 1 µM, first compound 0.3 µM) 37.2%. The viability, T/C runs as follows: (second compound 3.16 µM, first compound 0.000949 µM) 86.8%; (second compound 3.16 µM, first compound 0.003 µM) 65.8%; (second compound 3.16 µM, first compound 0.00949 µM) 54.1%; (second compound 3.16 µM, first compound 0.03 µM) 51.5%; (second compound 3.16 µM, first compound 0.0949 µM) 45.1%; (second compound 3.16 µM, first compound 0.3 µM) 43.6%. Further, the viability, T/C was 83.1% (second compound 10 µM, first compound 0.000949 µM); 56.8% (second compound 10 µM, first compound 0.003 µM); 56.8% (second compound 10 µM, first compound 0.00949 µM); 49% (second compound 10 µM, first compound 0.03 µM); 51.1% (second compound 10 µM, first compound 0.0949 µM); 42.2% (second compound 10 µM, first compound 0.3 µM).
On to `CC(C)CC(NC(=O)CNC(=O)c1cc(Cl)ccc1Cl)B1OC(=O)CC(CC(=O)O)(C(=O)O)O1` (centres undefined) + NC1CC1c1ccc(-c2cccc(O)c2)cc1, for which the IC50 came out at 3.82 nM under setting [1]; 3.08 nM under setting [2]; 2.83 nM under setting [3]; 3.13 nM under setting [4]; 2.58 nM under setting [5]. Further, the viability, T/C runs as follows: (second compound 0.1 µM, first compound 0.000316 µM) 91.2%; (second compound 0.1 µM, first compound 0.001 µM) 102%; under setting [6], 57.3%; under setting [7], 9.87%; under setting [8], 1.39%; under setting [9], 0.35%. Further, the viability, T/C is, setting by setting: (second compound 0.316 µM, first compound 0.000316 µM) 102%; (second compound 0.316 µM, first compound 0.001 µM) 96.5%; under setting [10], 47.9%; under setting [11], 10.8%; under setting [12], 1.68%; under setting [13], 0.68%. Besides, the viability, T/C was 90.9% (second compound 1 µM, first compound 0.000316 µM); 106% (second compound 1 µM, first compound 0.001 µM); 44.7% under setting [14]; 8.76% under setting [15]; 0.48% under setting [16]; 0.25% under setting [17]. The viability, T/C runs as follows: (second compound 3.16 µM, first compound 0.000316 µM) 93.9%; (second compound 3.16 µM, first compound 0.001 µM) 103%; under setting [18], 49.6%; under setting [19], 6.24%; under setting [20], 0.66%; under setting [21], 0.21%. In addition, the viability, T/C (second compound 10 µM, first compound 0.000316 µM) is 83.2%; the viability, T/C (second compound 10 µM, first compound 0.001 µM) was 96.4%; the viability, T/C under setting [22] is 41.5%; the viability, T/C under setting [23] is 3.08%; the viability, T/C under setting [24] was 0.14%; the viability, T/C under setting [25] was 0.2%.
For `Nc1ncn(C2CC(O)C(CO)S2)c(=O)n1` (centres undefined), the viability, T/C is 91.3% and 115% (compound 0.000949 µM); 118% and 98.8% (compound 0.003 µM); 95.8% and 96.4% (compound 0.00949 µM); 112% and 99.8% (compound 0.03 µM); 111% and 96.1% (compound 0.0949 µM); 84.7% and 78.1% (compound 0.3 µM). Moreover, where the note is “curve of compound”, the IC50 is more than 300 nM.
As for `COc1cc(Nc2ncc3c(n2)-c2ccc(Cl)cc2C(c2c(F)cccc2OC)=NC3)ccc1C(=O)O` + NC1CCC(NC2CC2c2ccccc2)CC1, the IC50 by setting is: under setting [1], 218 nM; under setting [2], 172 nM; under setting [3], 201 nM; under setting [4], 229 nM; under setting [5], 229 nM. In addition, the viability, T/C reads like this: under setting [6], 87.8%; under setting [7], 80.6%; under setting [8], 81.6%; under setting [9], 73.5%; (second compound 0.1 µM, first compound 0.316 µM) 38.9%; (second compound 0.1 µM, first compound 1 µM) 6.3%. Besides, the viability, T/C by setting is: under setting [10], 96.4%; under setting [11], 86.7%; under setting [12], 79.8%; under setting [13], 61.6%; (second compound 0.316 µM, first compound 0.316 µM) 36.6%; (second compound 0.316 µM, first compound 1 µM) 5.23%. Also, the viability, T/C reads like this: under setting [14], 104%; under setting [15], 87.6%; under setting [16], 91.4%; under setting [17], 71%; (second compound 1 µM, first compound 0.316 µM) 36.2%; (second compound 1 µM, first compound 1 µM) 5.15%. The viability, T/C is 110% under setting [18]; 94.1% under setting [19]; 94.4% under setting [20]; 83.7% under setting [21]; 36.9% (second compound 3.16 µM, first compound 0.316 µM); 4.29% (second compound 3.16 µM, first compound 1 µM). The viability, T/C was 108% under setting [22]; 85.3% under setting [23]; 89.9% under setting [24]; 83.7% under setting [25]; 37.1% (second compound 10 µM, first compound 0.316 µM); 2.91% (second compound 10 µM, first compound 1 µM).
On to `CCN(c1cc(-c2ccc(CN3CCOCC3)cc2)cc(C(=O)NCc2c(C)cc(C)[nH]c2=O)c1C)C1CCOCC1`, for which the viability, T/C was 119% and 92.8% (compound 0.00949 µM); 97.8% and 90.4% (compound 0.03 µM); 101% and 97.6% (compound 0.0949 µM); 101% and 90.8% (compound 0.3 µM); 105% and 96% (compound 0.949 µM); 102% and 96.7% (compound 3 µM). For the same compound, the IC50 (curve of compound) was more than 3000 nM.
